Data as given in PMC9860845, “Synthesis, DFT Studies, Molecular Docking and Biological Activity Evaluation of Thiazole-Sulfonamide Derivatives as Potent Alzheimer’s Inhibitors” (Molecules, 2023).
Read-outs that look alike come from different tables or passages of the source.

Experiments:
[1] = target: acetylcholinesterase (AChE) (Homo sapiens, UniProt P22303); assay: biochemical
[2] = target: butyrylcholinesterase (BuChE) (Homo sapiens, UniProt P06276); assay: biochemical
[3] = Ellman method, pH 7.7, 37 °C, triplicate, ± SEM, read-out: AchE IC50
[4] = Ellman method, pH 7.7, 37 °C, triplicate, ± SEM, read-out: BuChE IC50

Sequence of butyrylcholinesterase (BuChE) (P06276 29-602): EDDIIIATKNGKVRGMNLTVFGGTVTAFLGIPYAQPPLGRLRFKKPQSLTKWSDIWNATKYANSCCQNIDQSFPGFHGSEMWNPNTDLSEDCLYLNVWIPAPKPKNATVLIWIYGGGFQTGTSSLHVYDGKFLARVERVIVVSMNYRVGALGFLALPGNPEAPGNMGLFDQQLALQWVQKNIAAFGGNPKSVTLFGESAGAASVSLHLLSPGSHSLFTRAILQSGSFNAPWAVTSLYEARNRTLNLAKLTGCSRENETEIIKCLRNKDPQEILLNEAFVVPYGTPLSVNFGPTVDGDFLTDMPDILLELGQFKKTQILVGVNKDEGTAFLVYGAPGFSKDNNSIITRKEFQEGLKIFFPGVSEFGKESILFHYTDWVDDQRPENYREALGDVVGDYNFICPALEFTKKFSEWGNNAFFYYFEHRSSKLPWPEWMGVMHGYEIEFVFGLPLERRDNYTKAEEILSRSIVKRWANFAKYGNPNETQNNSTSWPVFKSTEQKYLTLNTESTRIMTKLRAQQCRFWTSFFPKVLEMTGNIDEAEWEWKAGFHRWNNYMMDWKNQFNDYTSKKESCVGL
Sequence of acetylcholinesterase (AChE) (P22303 32-614, species assumed): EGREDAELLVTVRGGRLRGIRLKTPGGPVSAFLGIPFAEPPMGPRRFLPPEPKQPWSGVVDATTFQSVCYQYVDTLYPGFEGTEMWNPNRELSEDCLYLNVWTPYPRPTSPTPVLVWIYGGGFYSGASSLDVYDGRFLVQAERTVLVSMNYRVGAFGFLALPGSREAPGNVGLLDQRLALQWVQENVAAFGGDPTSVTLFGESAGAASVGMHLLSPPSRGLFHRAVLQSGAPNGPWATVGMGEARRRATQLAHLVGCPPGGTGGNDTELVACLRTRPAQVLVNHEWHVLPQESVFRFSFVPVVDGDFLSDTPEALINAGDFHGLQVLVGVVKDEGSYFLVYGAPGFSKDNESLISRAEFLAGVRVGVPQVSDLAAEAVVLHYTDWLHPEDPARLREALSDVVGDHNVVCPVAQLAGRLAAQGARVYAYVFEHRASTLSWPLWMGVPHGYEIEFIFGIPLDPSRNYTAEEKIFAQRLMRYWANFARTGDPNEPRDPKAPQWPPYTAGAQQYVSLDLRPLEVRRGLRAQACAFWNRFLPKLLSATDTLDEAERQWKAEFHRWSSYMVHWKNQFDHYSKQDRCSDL

SMILES | IC50 [1, 3] | IC50 [2, 4] | IC50 [1] | IC50 [2]
O=[N+]([O-])c1cccc(-c2csc(NNS(=O)(=O)c3cc(Cl)cc(Cl)c3O)n2)c1 [analog 1, 3,5-Dichlro-2-hydroxy-N′-(4-(3-nitrophenyl)thiazol-2-yl)benzenesulfonohydrazide] | 100 ± 50 nM | 200 ± 50 nM | – | –
O=[N+]([O-])c1cccc(-c2csc(NNS(=O)(=O)c3ccc(Cl)cc3)n2)c1 [analog 2, 4-Chloro-N′-(4-(3-nitrophenyl)thiazol-2-yl)benzenesulfonohydrazide] | 1900 ± 100 nM | 2700 ± 100 nM | – | –
O=[N+]([O-])c1cccc(-c2csc(NNS(=O)(=O)c3cccc([N+](=O)[O-])c3)n2)c1 [analog 3, 3-Nitro-N′-(4-(3-nitrophenyl)thiazol-2-yl)benzenesulfonohydrazide] | – | – | 2900 ± 100 nM | 3800 ± 100 nM
Cc1ccc([N+](=O)[O-])cc1S(=O)(=O)NNc1nc(-c2cccc([N+](=O)[O-])c2)cs1 [analog 4, 2-Methyl-5-nitro-N′-(4-(3-nitrophenyl)thiazol-2-yl)benzenesulfonohydrazide] | – | – | 3200 ± 100 nM | 6100 ± 200 nM
O=[N+]([O-])c1ccc(S(=O)(=O)NNc2nc(-c3ccccc3)cs2)cc1 [analog 6, 4-Nitro-N′-(4-phenylthiazol-2-yl)benzenesulfonohydrazide] | 11400 ± 200 nM | 14300 ± 300 nM | – | –
O=S(=O)(NNc1nc(-c2ccc(Cl)cc2)cs1)c1ccc(Cl)cc1 [analog 7, 4-Chloro-N′-(4-(4-chlorophenyl)thiazol-2-yl)benzenesulfonohydrazide] | 2600 ± 100 nM | 4200 ± 100 nM | – | –
O=S(=O)(NNc1nc(-c2ccc(-c3ccccc3)cc2)cs1)c1ccc(Cl)cc1 [analog 8, N′-(4-([1,1′-biphenyl]-4-yl)thiazol-2-yl)-4-chlorobenzenesulfonohydrazide] | 7300 ± 100 nM | 9200 ± 100 nM | – | –
O=S(=O)(NNc1nc(-c2ccc(Cl)cc2)cs1)c1cc(Cl)cc(Cl)c1O [analog 9, 3,5-Dichloro-N′-(4-(4-chlorophenyl)thiazol-2-yl)-2-hydroxybenzenesulfonohydrazide] | 400 ± 50 nM | 700 ± 50 nM | – | –
Cc1ccc([N+](=O)[O-])cc1S(=O)(=O)NNc1nc(-c2ccc(Cl)c(Cl)c2)cs1 [analog 10, N′-(4-(3,4-dichlorophenyl)thiazol-2-yl)-2-methyl-5-nitrobenzenesulfonohydrazide] | 200 ± 50 nM | 600 ± 50 nM | – | –
Cc1ccc([N+](=O)[O-])cc1S(=O)(=O)NNc1nc(-c2ccc(Cl)cc2)cs1 [analog 11, N′-(4-(4-chlorophenyl)thiazol-2-yl)-2-methyl-5-nitrobenzenesulfonohydrazide] | 3100 ± 100 nM | 4400 ± 100 nM | – | –
O=[N+]([O-])c1cccc(S(=O)(=O)NNc2nc(-c3ccc(Cl)c(Cl)c3)cs2)c1 [analog 13, N′-(4-(3,4-dichlorophenyl)thiazol-2-yl)-3-nitrobenzenesulfonohydrazide] | 300 ± 100 nM | 1400 ± 100 nM | – | –
O=[N+]([O-])c1cccc(S(=O)(=O)NNc2nc(-c3ccc(Cl)cc3)cs2)c1 [analog 14, N′-(4-(4-chlorophenyl)thiazol-2-yl)-3-nitrobenzenesulfonohydrazide] | 1200 ± 100 nM | 2700 ± 100 nM | – | –
O=S(=O)(NNc1nc(-c2ccc(Cl)c(Cl)c2)cs1)c1ccc(Cl)cc1 [analog 15, 4-Chloro-N′-(4-(3,4-dichlorophenyl)thiazol-2-yl)benzenesulfonohydrazide] | 400 ± 100 nM | 900 ± 100 nM | – | –
Cc1ccc([N+](=O)[O-])cc1S(=O)(=O)NNc1nc(-c2ccc(-c3ccccc3)cc2)cs1 [analog 16, N′-(4-([1,1′-biphenyl]-4-yl)thiazol-2-yl)-2-methyl-5-nitrobenzenesulfonohydrazide] | 300 ± 50 nM | 300 ± 50 nM | – | –
O=[N+]([O-])c1ccc([N+](=O)[O-])c(S(=O)(=O)NNc2nc(-c3ccc(-c4ccccc4)cc3)cs2)c1 [analog 19, N′-(4-([1,1′-biphenyl]-4-yl)thiazol-2-yl)-2,5-dinitrobenzenesulfonohydrazide] | – | – | 3100 ± 100 nM | 4300 ± 100 nM
O=[N+]([O-])c1ccc(S(=O)(=O)NNc2nc(-c3cccc([N+](=O)[O-])c3)cs2)cc1 [analog 20, 4-Nitro-N′-(4-(3-nitrophenyl)thiazol-2-yl)benzenesulfonohydrazide] | – | – | 3500 ± 100 nM | 5500 ± 100 nM
O=[N+]([O-])c1ccc(S(=O)(=O)NNc2nc(-c3ccc(-c4ccccc4)cc3)cs2)cc1 [analog 21, N′-(4-([1,1′-biphenyl]-4-yl)thiazol-2-yl)-4-nitrobenzenesulfonohydrazide] | 3200 ± 100 nM | 5400 ± 100 nM | – | –
